These are literature values, as cited in patent US6629835B2, “Combinations of diterpene triepoxide lactones and ditepene lactones or triterpenes for synergistic inhibition of cyclooxygenase-2” (MetaProteomics, LLC, priority 2000, dated 2003).

For the series the following is noted: gastrointestinal disturbance, nausea and vomiting, hypotension, edema; cited from earlier work.

In the case of `CC(C)[C@]12O[C@H]1[C@@H]1O[C@]13[C@]1(O[C@H]1C[C@H]1C4=C(CC[C@@]13C)C(=O)OC4)[C@@H]2O` [Triptolide], the “Patients showing some type of side effects” value is given as “Approximately 28%”.
